Data: patent publication US12173018B2, “Penicillin-binding protein inhibitors” (priority 2018, dated 2024)
Like-named read-outs stand apart in the source and are kept apart here.

Assays:
E. coli ATCC 25922 = assay: Broth microdilution MIC, E. coli ATCC 25922; format: cell-based; conditions: Escherichia coli
Method: (§1) To determine the ability of test compounds to potentiate the inhibition of the growth of bacterial strains, classic cell based broth microdilution minimum inhibitory concentration (MIC) assays were employed. MIC assays are performed according to CLSI methods except where otherwise noted (CLSI, 2011 and CLSI, 2009). The reference type strain E. coli ATCC 25922, the wild-type parent strain E. coli AG100, the hyper-permeable E. coli 901C and E. coli D22 and the E. coli AG100A strain lacking the acrAB efflux pump encoding genes were used to determine the ability of the PBP inhibitors to penetrate the outer membrane of gram-negative bacteria and inhibit bacterial growth. […] The P. aeruginosa PAO1, P. aeruginosa ATCC 27853 and A. baumannii ATCC 19606, along with the hyper-permeable P. aeruginosa ATCC 35151 and an engineered efflux pump-compromised strain of P. aeruginosa (ΔmexAB-oprM) were used to determine the ability of PBP inhibitors to penetrate the outer membrane of P. aeruginosa and A. baumannii and assess antibacterial activity against these important gram-negative organisms.
(§2) Briefly, cryo-preserved bacterial cultures of challenge strains are streaked for isolation on appropriate agar medium, in this case Mueller Hinton II agar. Following incubation to allow growth of the colonies, plates are sealed with parafilm and stored refrigerated for up to two weeks. For preparation of assay inoculum and to ensure low variability, at least 5 colonies are picked from the agar plates with an inoculating loop and aseptically transferred to a culture tube containing 3 mL of Mueller-Hinton Broth (supplemented with divalent cations to required levels based on Manufacturers' certification). The broth culture is grown for 3-5 hours at 37° C. with shaking at 200 rpm. Meanwhile, 2-fold serial dilutions of test compounds are conducted in a 96 well plate with a final volume of 75 μL per well at 2-fold the final desired concentration. After the dilution plates are set up the growing cultures are then diluted in a cuvette containing MH II broth and the optical density is measured at 600 nm. The Inoculum is diluted such that 75 μL of this culture in Mueller-Hinton Broth results in a starting bacterial concentration of 5×10^5 CFU/mL when added to the dilution plates. The plates are incubated for 16-20 hours at 37° C. The MIC values are read visually as the lowest concentration well with no bacterial growth.

K. pneumoniae UMM = assay: microbe, parasite or virus in culture; format: cell-based; conditions: Klebsiella pneumoniae; K. pneumoniae UMM producing SHV-5 and KPC-2; read-out: MIC K. pneumoniae UMM
Method: as §1, §2

E. coli AG100A = assay: microbe, parasite or virus in culture; format: cell-based; conditions: Escherichia coli, read-out: MIC E. coli AG100A
Method: as §1, §2

E. coli 901C = assay: microbe, parasite or virus in culture; format: cell-based; conditions: Escherichia coli; hyper-permeable E. coli 901C, broth microdilution; read-out: MIC E. coli 901C
Method: as §1, §2

E. coli AG100 = assay: Broth microdilution MIC, E. coli AG100 (wild-type parent); format: cell-based; conditions: Escherichia coli; wild-type parent E. coli AG100, broth microdilution; read-out: MIC E. coli AG100
Method: To determine the ability of test compounds to potentiate the inhibition of the growth of bacterial strains, classic cell based broth microdilution minimum inhibitory concentration (MIC) assays were employed.
as §2

K. pneumoniae SI-117 = assay: microbe, parasite or virus in culture; format: cell-based; conditions: Klebsiella pneumoniae, SI117, read-out: MIC K. pneumoniae SI-117
Method: as §1, §2

E. coli PBP3 = E. coli PBP3 (Escherichia coli (strain K12), UniProt P0AD68); assay: E. coli PBP3 Bocillin-FL fluorescence polarization competition binding assay
Sequence of E. coli PBP3 (P0AD68 whole entry): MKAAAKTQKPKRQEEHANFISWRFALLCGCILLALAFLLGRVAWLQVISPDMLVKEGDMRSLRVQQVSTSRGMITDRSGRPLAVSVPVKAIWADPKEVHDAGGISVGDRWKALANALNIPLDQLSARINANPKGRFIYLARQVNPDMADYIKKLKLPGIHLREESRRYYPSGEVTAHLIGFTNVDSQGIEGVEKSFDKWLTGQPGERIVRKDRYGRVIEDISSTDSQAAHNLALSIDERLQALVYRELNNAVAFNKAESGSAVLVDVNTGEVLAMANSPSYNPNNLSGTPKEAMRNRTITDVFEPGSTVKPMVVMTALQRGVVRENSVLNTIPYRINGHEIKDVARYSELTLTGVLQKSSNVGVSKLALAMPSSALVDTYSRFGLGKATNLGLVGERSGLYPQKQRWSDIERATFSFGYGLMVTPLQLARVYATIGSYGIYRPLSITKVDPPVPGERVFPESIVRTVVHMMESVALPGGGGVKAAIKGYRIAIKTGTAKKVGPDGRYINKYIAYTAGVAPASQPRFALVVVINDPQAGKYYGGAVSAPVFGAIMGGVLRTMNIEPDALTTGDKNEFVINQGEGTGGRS
Source text: To determine the ability of boronic acid-based test PBP inhibitors to bind Penicillin Binding Proteins (PBPs), Bocillin-FL (fluorescently-labeled penicillin V; ThermoFisher Scientific) was used in a fluorescence polarization (FP) competition binding assay to assess inhibitor binding to PBP2, PBP3 or PBP4 from Escherichia coli. PBPs were cloned and purified as described previously (King, D. T, et al., ACS Infectious Diseases 2015, 1, 175-184). To establish assay conditions for competition binding, an enzyme titration/saturation binding experiment was initially performed. Bocillin-FL was prepared at 0.2 μM in a buffer comprised of 50 mM Hepes (pH 8.0), 300 mM NaCl and 5% (v/v) glycerol. Saturation binding was performed by mixing 40 μl of PBP solutions ranging in concentrations from 0-12 μM with 40 μl of the 0.2 μM Bocillin-FL solution, in individual wells of a black 384-well microplate. FP was measured immediately upon mixing (Excitation, 490 nm; Emission, 520 nm; g-factor, 0.96), using a Cytation3 (BioTek) microplate reader and measured continuously for up to 120 minutes. […] Assays (80 μl final volume) were performed with PBPs at a final concentration of 1.5 μM, Bocillin-FL at 0.1 μM and beta-lactam concentrations that ranged from 0-1000 μM. […] Bocillin-FL was added and the FP immediately measured for 60 minutes (90 minutes for PBP2). The beta-lactam potency was reported as the concentration of beta-lactam required to reduce binding of Bocillin-FL by […] (EC50). […] Binding assays for boronic acid PBP inhibitors were performed in an identical fashion.

E. coli D22 = assay: microbe, parasite or virus in culture; format: cell-based; conditions: Escherichia coli; hyper-permeable E. coli D22, broth microdilution; read-out: MIC E. coli D22
Method: as §1, §2

K. pneumoniae 848844 = assay: microbe, parasite or virus in culture; format: cell-based, Klebsiella pneumoniae; conditions: Klebsiella pneumoniae; K. pneumoniae 848844 producing SHV-11 and KPC-2; read-out: MIC K. pneumoniae 848844
Method: as §1, §2

[1] = ATCC25922, read-out: MIC E. coli 25922
[2] = ATCC25922, E. coli ATCC 25922, broth microdilution, read-out: MIC E. coli 25922

| Structure (SMILES) | MIC (E. coli ATCC 25922; [1]) [µg/mL] | MIC (K. pneumoniae UMM) [µg/mL] | MIC (E. coli AG100A) [µg/mL] | MIC (E. coli 901C) [µg/mL] | MIC (E. coli AG100) [µg/mL] | MIC (K. pneumoniae SI-117) [µg/mL] | EC50 (E. coli PBP3; fluorescence polarization competition binding with Bocillin-FL, read-out: E. coli K12 PBP3 Potency) [µM] | MIC (E. coli ATCC 25922; [2]) [µg/mL] | MIC (E. coli D22) [µg/mL] | MIC (K. pneumoniae 848844) [µg/mL] | EC50 (E. coli PBP3) [µM] |
| --- | --- | --- | --- | --- | --- | --- | --- | --- | --- | --- | --- |
| CCNC(=O)NC(C(=O)N[C@H]1Cc2cccc(C(=O)O)c2OB1O)c1csc(N)n1 (stereo partly drawn) [Example 6, (3R)-3-(2-(2-aminothiazol-4-yl)-2-(3-ethylureido)acetamido)-2-hydroxy-3,4-dihydro-2H-benzo[e][1,2]oxaborinine-8-carboxylic acid] | > 128 | > 128 | 8 to 16 | 8 to 16 | > 128 | – | – | – | – | – | – |
| Nc1nc(C(NS(=O)(=O)c2cccnc2)C(=O)N[C@H]2Cc3cccc(C(=O)O)c3OB2O)cs1 (stereo partly drawn) [Example 7, (3R)-3-(2-(2-aminothiazol-4-yl)-2-(pyridine-3-sulfonamido)acetamido)-2-hydroxy-3,4-dihydro-2H-benzo[e][1,2]oxaborinine-8-carboxylic acid] | > 128 | > 128 | 32 to 64 | 8 to 16 | > 128 | – | – | – | – | – | – |
| CCN1CCN(C(=O)N[C@@H](C)C(=O)N[C@H]2Cc3cccc(C(=O)O)c3OB2O)C(=O)C1=O [Example 8, (R)-3-((S)-2-(4-Ethyl-2,3-dioxopiperazine-1-carboxamido)propanamido)-2-hydroxy-3,4-dihydro-2H-benzo[e][1,2]oxaborinine-8-carboxylic acid] | > 128 | > 128 | > 128 | > 128 | > 128 | > 128 | – | – | – | – | – |
| CCCN1CCN(C(=O)NC(C(=O)N[C@H]2Cc3cccc(C(=O)O)c3OB2O)c2ccc(O)cn2)C(=O)C1=O (stereo partly drawn) [Example 134, (3R)-3-(2-(2,3-dioxo-4-propylpiperazine-1-carboxamido)-2-(5-hydroxypyridin-2-yl)acetamido)-2-hydroxy-3,4-dihydro-2H-benzo[e][1,2]oxaborinine-8-carboxylic acid] | – | 32 to 64 | 8 to 16 | 2 to 4 | 32 to 64 | 32 to 64 | < 30 | 32 to 64 | 8 to 16 | 32 to 64 | – |
| CCN1CCN(C(=O)NC(C(=O)N[C@H]2Cc3cccc(C(=O)O)c3OB2O)c2ccc(O)c(O)n2)C(=O)C1=O (stereo partly drawn) [Example 140, (3R)-3-(2-(5,6-dihydroxypyridin-2-yl)-2-(4-ethyl-2,3-dioxopiperazine-1-carboxamido)acetamido)-2-hydroxy-3,4-dihydro-2H-benzo[e][1,2]oxaborinine-8-carboxylic acid] | – | 8 to 16 | 2 to 4 | 0.5 to 1 | 32 to 64 | 32 to 64 | – | 8 to 16 | 2 to 4 | 32 to 64 | 30 to 500 |
| CCN1CCN(C(=O)NC(C(=O)N[C@H]2Cc3ccc(F)c(C(=O)O)c3OB2O)c2cccnc2)C(=O)C1=O (stereo partly drawn) [Example 141, (3R)-3-(2-(4-ethyl-2,3-dioxopiperazine-1-carboxamido)-2-(pyridin-3-yl)acetamido)-7-fluoro-2-hydroxy-3,4-dihydro-2H-benzo[e][1,2]oxaborinine-8-carboxylic acid] | – | 32 to 64 | 32 to 64 | 2 to 4 | > 128 | > 128 | – | > 128 | 8 to 16 | > 128 | 30 to 500 |
| CCN1CCN(C(=O)NC(C(=O)N[C@H]2Cc3cccc(C(=O)O)c3OB2O)c2ccc(O)c(S(N)(=O)=O)c2)C(=O)C1=O (stereo partly drawn) [Example 143, (3R)-3-(2-(4-ethyl-2,3-dioxopiperazine-1-carboxamido)-2-(4-hydroxy-3-sulfamoylphenyl)acetamido)-2-hydroxy-3,4-dihydro-2H-benzo[e][1,2]oxaborinine-8-carboxylic acid] | – | 32 to 64 | 2 to 4 | < 0.25 | 32 to 64 | > 128 | – | 32 to 64 | 2 to 4 | > 128 | – |
| CCN1CCN(C(=O)NC(C(=O)N[C@H]2Cc3cccc(C(=O)O)c3OB2O)c2ccc(OC)c(S(N)(=O)=O)c2)C(=O)C1=O (stereo partly drawn) [Example 144, (3R)-3-(2-(4-ethyl-2,3-dioxopiperazine-1-carboxamido)-2-(4-methoxy-3-sulfamoylphenyl)acetamido)-2-hydroxy-3,4-dihydro-2H-benzo[e][1,2]oxaborinine-8-carboxylic acid] | – | 32 to 64 | 8 to 16 | 0.5 to 1 | 8 to 16 | > 128 | – | > 128 | 8 to 16 | > 128 | 30 to 500 |
| CCN1CCN(C(=O)N[C@H](C(=O)N[C@H]2Cc3cccc(C(=O)O)c3OB2O)c2ccc(O)c(F)c2)C(=O)C1=O [Example 155, (R)-3-((S)-2-(4-ethyl-2,3-dioxopiperazine-1-carboxamido)-2-(3-fluoro-4-hydroxyphenyl)acetamido)-2-hydroxy-3,4-dihydro-2H-benzo[e][1,2]oxaborinine-8-carboxylic acid] | – | > 128 | 8 to 16 | 0.5 to 1 | > 128 | > 128 | – | > 128 | 8 to 16 | > 128 | 30 to 500 |
| CCN1CCN(C(=O)NC(C(=O)N[C@H]2Cc3c(F)cc(F)c(C(=O)O)c3OB2O)c2csc(N)n2)C(=O)C1=O (stereo partly drawn) [Example 184, (3R)-3-(2-(2-aminothiazol-4-yl)-2-(4-ethyl-2,3-dioxopiperazine-1-carboxamido)acetamido)-5,7-difluoro-2-hydroxy-3,4-dihydro-2H-benzo[e][1,2]oxaborinine-8-carboxylic acid] | – | – | – | – | – | – | – | – | – | – | 30 to 500 |
| CCN1CCN(C(=O)NC(C(=O)N[C@H]2Cc3cccc(C(=O)O)c3OB2O)c2csc(N)n2)C(O)C1=O (stereo partly drawn) [Example 193, (3R)-3-(2-(2-aminothiazol-4-yl)-2-(4-ethyl-2-hydroxy-3-oxopiperazine-1-carboxamido)acetamido)-2-hydroxy-3,4-dihydro-2H-benzo[e][1,2]oxaborinine-8-carboxylic acid] | – | – | – | – | – | – | – | – | – | – | 30 to 500 |
| CCN1CCN(C(=O)NC(C(=O)N[C@H]2Cc3cccc(C(=O)O)c3OB2O)c2ncc(C(=O)NCCO)cc2F)C(=O)C1=O (stereo partly drawn) [Example 241, (3R)-3-(2-(4-ethyl-2,3-dioxopiperazine-1-carboxamido)-2-(3-fluoro-5-((2-hydroxyethyl)carbamoyl)pyridin-2-yl)acetamido)-2-hydroxy-3,4-dihydro-2H-benzo[e][1,2]oxaborinine-8-carboxylic acid] | > 128 | > 128 | 8 to 16 | 0.5 to 1 | > 128 | > 128 | – | – | 8 to 16 | > 128 | – |
